The source of these data is patent US20220016127A1, “COMPOSITIONS AND METHODS FOR INDUCING APPENDAGE AND LIMB REGENERATION” (priority 2020, published 2022).

“And” between values parts separate entries of the source, which are not always exact repeats. Identical values can stand only once.

Experiment [1] relates to Aurelia ephyra. Kind of experiment: Arm regeneration induction in amputated Aurelia ephyrae. The experiment is classed as in vivo, Aurelia aurita. The note with it: for effect on arm regeneration / regeneration frequency (in words): amputated ephyrae, factor added to artificial seawater upon amputation; for Percent regeneration, Average: average over experiments; for Effect size, Length of arm regenerates: Response Ratio treated vs control (Table 7); for Average effect size: Risk Ratio of regeneration frequency, across experiments (Table 4); for Average effect size / Odds Ratio: treated vs control; for Effect size, % ephyrae regenerating / Effect size, % ephyrae regenerating >1 arm / Effect size, % ephyrae regenerating rhopalia: Risk Ratio treated vs control (Table 7); for Odds Ratio: odds of regeneration, across experiments (Table 6). The procedure:
Amputation. Strobilated ephyrae were fed daily with rotifers (Brachionus plicatilis) until amputation time. 2-3 days old ephyrae were anesthetized in 400 μM menthol and amputated using a razor blade mounted on an x-acto knife handle. After amputation, ephyrae were let to recover in bubbler cones (FIG. 7). Regeneration was assessed at various times until 1-2 weeks after amputation, before onset of maturation to medusa.
Inducing regeneration. Experimental setup. 0.5-1 L sand settling cones were repurposed as jellyfish aquaria (Nalgene Imhoff; FIG. 7). Each cone was equipped with an airline from a Tetra Whisper air pump 100 to create a gentle vertical current (˜1 bubble/sec, see FIG. 30). The conical geometry eliminates stagnant spots, where the ephyrae could get stuck. In this “bubbler cone” setup, the ephyrae were continually in water current either in the upward air bubble-generated current or the downward self-generated current. 500 mL artificial seawater and 30 ephyrae were placed in each cone to avoid crowding and fouling. Artificial seawater was changed every week. Nutrients. In some embodiments, the food amount given here only serves as an initial estimate; percentage of regeneration can easily vary with lab culture condition (e.g., polyp and rotifer size, age, health), as well as subject to variation across polyps and strobilation batches (see Table 2A-Table 2C for a sense of the variation). Amputated ephyrae were fed daily with rotifers. The number of rotifers administered daily was estimated using a 6-well plate fitted with STEMgrid™ (the same principle as using a hemocytometer). In some embodiments, low food is ˜100-200 rotifers/ephyra, whereas high food is ˜400 rotifers/ephyra. Insulin. Human recombinant insulin was administered to the amputated ephyrae at 500 nM immediately after amputation (by mixing in the artificial seawater). If the experiment proceeds longer than a week, fresh insulin was added at the one-week time point. Hypoxia. Nitrogen or argon flow, instead of ambient air flow, was introduced via the airline into the bubbler cone immediately after amputation, and maintained throughout the duration of the experiment. The nitrogen flow was adjusted to achieve 50% reduction in the dissolved oxygen level.
Inhibiting or activating mTOR. 1 nM Sapanisertib (Selleck Chemicals S2811), 1 μM A769662 (Santa Cruz sc-203790), or 100 μM L-leucine (Sigma L1002, the cell-permeable methyl ester hydrochloride form) was administered into the artificial seawater right after amputation, and refreshed weekly. Statistical analysis. Percent regeneration was first normalized to the control (for sapanisertib and A769662, the HF+DMSO control; for leucine data the LF control), and then the student's t-test (two tailed, equal variances) in Excel was used to test the null hypothesis that the fold change in % regeneration is zero. Drosophila melanogaster
Amputation. Strobilated ephyrae were fed daily with rotifers (Brachionus plicatilis, Reed Mariculture) until amputation time. 2-3 days old ephyrae were anesthetized in 400 μM menthol and amputated using a razor blade mounted on an x-acto knife handle. After amputation, ephyrae were let to recover in bubbler cones (FIG. 21). Regeneration was assessed at various times for 1-2 weeks after amputation, before onset of maturation to medusa. Experiment in the original habitat. The polyp population in the study arose from parental polyps collected off the coast of Long Beach, Calif. (33° 46′04.2″N 118° 07′44.2″W, GPS: 33.7678376,−118.1289559). Ephyrae were amputated in location and immediately after submersed in the ocean. For submerging the amputated ephyrae in the ocean, a two-layered aquarium was custom-built. Ephyrae were placed in plastic canisters with a 7 cm diameter hole cut in the lid and covered with a 250 μm plastic screen. The canisters were then placed in a thick plastic tank fitted with a 500 μm plastic screen on top. […]

Experiment [2] concerns Aurelia ephyra. Kind of experiment: Body size (growth) of amputated Aurelia ephyrae. It is filed as in vivo, Aurelia aurita. The note with it: Response Ratio across experiments (Table 8). The procedure:
Two-to-three-day-old ephyrae were anesthetized in 400 μM menthol and amputated using a razor blade mounted on an x-acto knife handle. Amputated ephyrae were let to recover in 1 L sand settling cones (Nalgene Imhoff, FIG. 21). In each experiment, ˜90 animals were amputated for each condition (e.g., 90 animals for control and 90 animals for treated). Because of the varying baseline across strobilation batches, each experiment was repeated across 2-5 strobilation batches (biological replicates). These sample sizes were chosen to obtain a 95% confidence level on the treatment effect (statistical analysis described below). Hundreds of experimental animals were first amputated, mixed together in a beaker, and then randomly allocated to the control or treatment groups. Regeneration was assessed at various times for 1-2 weeks after amputation, before onset of maturation to medusa. All data were included in the analysis.
For measurements of arm length and body size, the datasets are in the form of continuous variables. For such data, the commonly used effect size is the Response Ratio (R, EQUATION 3),
R evaluates the proportionate change that results from a treatment, and is the meaningful effect size to use when the outcome of a treatment is measured on a physical scale, e.g., length or area (as opposed to arbitrary scale, e.g., happiness level). […]

Experiment [3] deals with Drosophila limb. Briefly: Tibia (hindlimb) regeneration in amputated adult Drosophila. The experiment is classed as in vivo, Drosophila melanogaster. Particulars: adult flies, fed in food.
Description: Amputation. Adult flies 2-7 days after eclosion were anesthetized with CO2. Amputations were performed under a dissection microscope using a spring scissors (Fine Science Tools, 91500-09) and superfine dissecting forceps (VWR, 82027-402). Recovering Drosophila were fed with standard fly food (control) or standard fly food supplemented with 2 mM L-leucine (Sigma L8000), 2 mM L-Glutamine (Sigma G3126), and 0.1 mg/mL insulin (MP Biomedicals 0219390080) or other molecular factors. To introduce molecular factors into fly food, standard fly food was microwaved in short pulses, such that the topmost layer of the food was liquified. Molecular factors in aqueous medium were then pipetted into this liquified layer. Food was allowed to re-set at 4° C. for at least 20 minutes. New food was prepared fresh every 2 days throughout the course of the 2-week experiment. Regeneration was assessed at 3, 6, 9 and 14 days post amputation.
Drosophila were amputated on the hindlimb, across the fourth segment of the leg, the tibia (FIG. 16A-FIG. 16C). The amputation removed the distal half to third of the tibia and all tarsal segments. […] Regeneration was assessed between 7-21 dpa as the presence of a regrown tibia with a reformed distal joint (FIG. 16E). […]
Experiment [4] concerns Aurelia ephyra. Briefly: Arm regeneration induction in amputated Aurelia ephyrae. The note with it: low food (LF) background; single experiments; arm regeneration 1-2 weeks after amputation; insulin 500 nM, L-leucine 100 μM / 100 mM, nitrogen flow ~50% reduction in oxygen. It is filed as in vivo, Aurelia aurita.
The mark [5] stands for this setting: high food (HF) background, single experiments, insulin 500 nM, 1 nM sapanisertib, 1 μM A769662 (controls HF + DMSO), nitrogen or argon flow ~50% reduction in oxygen.

On to `N#Cc1c(O)c2c(-c3ccc(-c4ccccc4O)cc3)csc2[nH]c1=O` [A769662, reference compound], for which, in experiment [1], the “effect on arm regeneration / regeneration frequency (in words)” value is “inhibited arm regeneration”. The “Percent regeneration, Average” value in experiment [1] (high food (HF) background) was 8.3%. Besides, in experiment [1] (setting [5]), the Percent regeneration was 9.8% and 7.0%.

Consider `CC(C)C[C@H](N)C(=O)O` [Leucine, L-leucine], for which, in experiment [1], the “Effect size, Length of arm regenerates” value was determined as 1.7; the Average effect size came to 4.1; the “Effect size, % ephyrae regenerating” value is 4.1; the “Effect size, % ephyrae regenerating >1 arm” value is reported as 6.0. Further, in experiment [1], the “Effect size, % ephyrae regenerating rhopalia” value is listed as 6.1; the “effect on arm regeneration / regeneration frequency (in words)” value is “induced arm regeneration”; the “Odds Ratio” value was determined as 5.8. For the same compound, the “Percent regeneration, Average” value in experiment [1] (low food (LF) background) turned out to be 23.0%. Also, in experiment [2], the “Ave. body diameter treatment/control” value is reported as 1.1. Further, the “effect on tibia regrowth (in words)” value in experiment [3] is on record as “can by itself effect tibia regrowth”.

For the compound `CC(C)n1nc(-c2ccc3oc(N)nc3c2)c2c(N)ncnc21` [Sap, Sapanisertib, reference compound], the “Percent regeneration, Average” value in experiment [1] (high food (HF) background) is reported as 11.5%.

On to `[Ar]` [argon], for which the “effect on arm regeneration / regeneration frequency (in words)” value in experiment [1] is “dramatically induced regeneration”. The Percent regeneration in experiment [1] (setting [5]) turned out to be 72.5%.

Regarding `N#N` [nitrogen], the Percent regeneration is 28.4% in experiment [1] (LF* background, single experiment, nitrogen flow); 82.1% and 56.9% in experiment [1] (setting [5]); 32.5% in experiment [4]. Further, the figures for the “Percent regeneration, Average” value in experiment [1] (high food (HF) background) and in experiment [1] (low food (LF) background) were 69.3% and 30.6%, respectively.

Consider “Insulin: human recombinant insulin (Sigma I0908), 500 nM in artificial seawater”, for which, in experiment [1], the “Effect size, Length of arm regenerates” value is on record as 1.2; the Average effect size is listed as 2.4; the “Effect size, % ephyrae regenerating” value stood at 2.4; the “Effect size, % ephyrae regenerating >1 arm” value is listed as 1.9. Also, in experiment [1], the “Effect size, % ephyrae regenerating rhopalia” value came out at 1.3 and the “Odds Ratio” value is reported as 5.0. For the same compound, the Percent regeneration in experiment [1] (setting [5]) is recorded as 36.4%. The “Ave. body diameter treatment/control” value in experiment [2] came to 1.4. This compound also displayed a Percent regeneration in experiment [4] of 25%.

On to “Tgfb: protein tested in the screen (hTGF-β1, Peprotech 100-21)”, for which the “effect on arm regeneration / regeneration frequency (in words)” value in experiment [1] is “no effect”.
